Values quoted from earlier work as cited in patent US7534449B2, “Targeted and high density drug loaded polymeric materials” (Yale University, priority 2004, dated 2009).

COc1cccc2c1C(=O)c1c(O)c3c(c(O)c1C2=O)C[C@@](O)(C(=O)CO)C[C@@H]3O[C@H]1C[C@H](N)[C@H](O)[C@H](C)O1 [Dox, doxorubicin]
pKa: 7.6 | solubility (aqueous environments): limited solubility
